Assay results: patent US4407794A, “Peptides and therapeutic applications thereof” (Centre National de la Recherche Scientifique (CNRS), priority 1980, dated 1983)
Peptide text beside a SMILES is read from it.

What was measured:
[1] = test system: rats; test: Anti-diarrhea action, castor oil test; assay type: in vivo; conditions: 10 rats, one hour prior to castor oil
Method: This action was investigated by the castor oil test in rats, using the method according to Niemegeers and co-workers (Arzn.-Forsch. 22, 516-518, 1972).
The tests were conducted with male rats of 160-220 g body weight. After an 18 hr fasting period, each animal was orally administered 1 ml castor oil.
The test compounds, dissolved in water, were administered orally under a volume of 0.5 ml per 100 g body weight, one hour prior to the castor oil administration.

[2] = target: μ receptors (Cavia porcellus, UniProt P97266); test: Inhibition of the contraction of the isolated guinea-pig ileum induced by coaxial stimulation; assay type: cell-based, guinea-pigs; conditions: for ILEUM Relative action: % activity with respect to Met-Enkephalin=100; for IC50: isolated guinea-pig ileum, coaxial stimulation, number of experiments in parentheses, read-out: ILEUM IC 50
Method: (§1) The study of the action on μ receptors or on σ receptors was conducted as a function of the effect on the isolated ileum of guinea-pigs or on the vas deferens of mice.
The action on the μ receptors was determined by the measure of the 50% inhibiting concentration (IC 50) of the contraction of the isolated ileum of guinea-pigs, induced by coaxial stimulation (PATON W.D.M., Brit.J. Pharm. 1959, 12, 119).
The 50% inhibiting concentrations are expressed as nanomolar/liter concentrations. Each product is tested with respect to Met-Enkephalin as reference material and the results obtained are also expressed as % activity with respect to Met-Enkephalin=100.
(§2) The ratio [formula] makes it possible to find out whether the test material is […] σ- specific. In said Table, the number of experiments is indicated between parentheses.

[3] = assay type: cell-based, mice; conditions: mouse vas deferens, electric stimulation; number of experiments in parentheses; read-out: VAS DEFERENS IC 50
Method: as §1
(§3) The action on the σ receptors was determined by the measure of the 50% inhibiting concentration (IC 50) of the contraction of the vas deferens of mice, induced by electric stimulation.
(§4) The 50% inhibiting concentrations are expressed as nanomolar/liter concentrations.
as §2

[4] = test system: σ receptors; assay type: cell-based, mice; conditions: for VAS DEFERENS Relative action: % activity with respect to Met-Enkephalin=100; for R IC 50 ileum / IC 50 V.D.: ratio of ileum (μ) IC50 to vas deferens IC50
Method: as §1, §3, §4, §2

[5] = test system: rats; test: Naxolone susceptibility test, appearance of dependence (abstinence jumps); assay type: in vivo; conditions: 25 mg/kg 4 times a day for 10 days, Naxolone 10 mg/kg s.c. on the 10th day
Method: This test makes it possible to evaluate the dependence induced by chronic administration of morphinic analgesics. It comprises inducing the dependence condition after 10 days of treatment by injection of a high doage of an antagonist: naxolone. Compound 1 was tested by ICV administration in rats, using the technique according to Frederickson et al., Res. Common.Pathol.Pharmacol. 5, 867(1973).
The results obtained are set forth in Table IV below and are compared with those obtained with morphine.

[6] = test system: liberation of dopamine; test: Spontaneous liberation of dopamine, ICV injection tests; assay type: in vivo
[7] = test system: mice; test: Analgesic activity, hot-plate (65° C.) test, i.v.; assay type: in vivo; conditions: for Reaction time (s) 15' Licking: 15 minutes; for Reaction time (s) 30' Leap: 30 minutes; for Reaction time (s) 60' Adjusted jump: 60 minutes; for Reaction time (s) 90' Adjusted jump: 90 minutes
Method: The compounds were tested in vivo by the intravenous route (i.v.) in mice, using the hot-plate (65° C.) test in mice, according to the method disclosed by JACOB & BLOZOVSKI (Arch.Int.Pharmacodyn. 1961, 33,296) by determination of the licking reflex at 15 minutes, of the leap at 30 minutes and of the adjusted jump at 60 and 90 minutes.
DAla2 Met-Enkephalin was used as reference material.

[8] = test system: rats; test: Locomotor activity after i.v. administration; assay type: in vivo; conditions: 5 mg/kg i.v., male rats, group of 10; saline reference group 100 ± 15%
Method: This preferential effect of δ-specific compound I on the dopaminergic receptors may be evidenced by i.v. administration of compound I and determination of the locomotor activity according to STINUS et al. Proc.Natl. Acad.Sci.USA 77, 2302 (1980). Each experiment was conducted on a group of 10 animals (male rats weighing 200-250 g) and the results obtained were compared with those of a reference group.

Chain of μ receptors (P97266 whole entry, looked up): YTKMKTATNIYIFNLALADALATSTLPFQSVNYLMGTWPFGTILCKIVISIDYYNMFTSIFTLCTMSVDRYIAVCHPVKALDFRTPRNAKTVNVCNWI

With `COc1ccc2c3c1O[C@H]1[C@@H](O)C=C[C@H]4[C@@H](C2)N(C)CC[C@@]341` [Codein base] the “Number of non-diarrheic animals 2 hours” value ([1]; 3 mg/kg orally) was 7, the “Number of non-diarrheic animals 4 hours” value ([1]; 3 mg/kg orally) was 4 and the “Number of non-diarrheic animals 2 hours” value ([1]; 10 mg/kg orally) was 10. The “Number of non-diarrheic animals 4 hours” value ([1]; 10 mg/kg orally) was 7.

In the case of `CSCC[C@H](NC(=O)[C@H](Cc1ccccc1)NC(=O)CNC(=O)[C@@H](C)NC(=O)[C@@H](N)Cc1ccc(O)cc1)C(=O)NCCCCCNS(=O)(=O)c1cccc2c(N(C)C)cccc12` [Example 13 of patent FR 78 12 543], the “ILEUM Relative action” value [2] is reported as 110%, the IC50 [3] is reported as 650 nM and the “VAS DEFERENS Relative action” value [4] is reported as 2.7%. For the same compound, the “R IC 50 ileum / IC 50 V.D.” value [4] was 0.49.

With `CN1CC[C@]23c4c5ccc(O)c4O[C@H]2[C@@H](O)C=C[C@H]3[C@H]1C5` [Morphin, morphine] the “Abstinence test (jumps)” value [5] was 74 ± 11 jumps and the “Increase of spontaneous liberation of dopamine” value (from here on “Increase”) ([6]; 10^-6 M) was 50%.

With `CSCC[C@H](NC(=O)[C@H](Cc1ccccc1)NC(=O)CNC(=O)CNC(=O)[C@@H](N)Cc1ccc(O)cc1)C(=O)O` [Met-Enkephalin] the “ILEUM Relative action” value [2] was 100%, the IC50 [2] was 354 nM and the IC50 [3] was […]. The “VAS DEFERENS Relative action” value [4] was 100% and the “R IC 50 ileum / IC 50 V.D.” value [4] was […].

With `CC(C)C[C@@H](NC(=O)[C@H](Cc1ccccc1)NC(=O)CNC(=O)[C@@H](CO)NC(=O)[C@@H](N)Cc1ccc(O)cc1)C(=O)O` [Example 45, TyrD.SerGlyPheD.Leu] (HELM PEPTIDE1{Y.[dS].G.F.[dL]}$$$$V2.0) the IC50 [2] was 247 nM.

For DAla^2 Met.Enkamide, the “Increase” value ([6]; 10^-6 M) was 100%.

`CC(C)C[C@H](NC(=O)[C@H](Cc1ccccc1)NC(=O)CNC(=O)[C@@H](C)NC(=O)[C@@H](N)Cc1ccc(O)cc1)C(=O)N[C@H](C(=O)O)[C@@H](C)O` [Example 2, TyrD.AlaGlyPheLeuThr] (HELM PEPTIDE1{Y.[dA].G.F.L.T}$$$$V2.0) showed an IC50 [2] of 500 nM.

In the case of `CN1CC[C@]23c4c5ccc(O)c4O[C@H]2[C@@H](O)C=C[C@H]3[C@H]1C5.Cl` [Morphin (hydrochloride)], the “Number of non-diarrheic animals 2 hours” value ([1]; 1 mg/kg orally) is reported as 9, the “Number of non-diarrheic animals 4 hours” value ([1]; 1 mg/kg orally) is reported as 4 and the “Number of non-diarrheic animals 2 hours” value ([1]; 3 mg/kg orally) is reported as 10. For the same compound, the “Number of non-diarrheic animals 4 hours” value ([1]; 3 mg/kg orally) was 6.

For D.Ala2 Met-Enkephalin, the “Reaction time (s) 15' Licking” value ([7]; 100 mg/kg i.v.) was 5.5 ± 1 s, the “Reaction time (s) 30' Leap” value ([7]; 100 mg/kg i.v.) was 5.5 ± 1.6 s and the “Reaction time (s) 60' Adjusted jump” value ([7]; 100 mg/kg i.v.) was 5.5 ± 1.2 s. For the same compound, the “Reaction time (s) 90' Adjusted jump” value ([7]; 100 mg/kg i.v.) was 5.6 ± 2 s.

`CCCC[C@H](NC(=O)[C@H](Cc1ccccc1)NC(=O)CNC(=O)[C@@H](CO)NC(=O)[C@@H](N)Cc1ccc(O)cc1)C(=O)N[C@H](C(=O)O)[C@@H](C)O` [Example 25, TyrD.SerGlyPheN.LeuThr] showed an IC50 [2] of 1050 nM.

With `CC(C)C[C@H](NC(=O)[C@H](Cc1ccccc1)NC(=O)CNC(=O)[C@@H](CO)NC(=O)[C@@H](N)Cc1ccc(O)cc1)C(=O)N[C@H](C(=O)O)[C@@H](C)O` [Example 1, TyrD.SerGlyPheLeuThr] the “ILEUM Relative action” value [2] was 55%, the IC50 [2] was 637 nM and the IC50 [3] was 0.8 nM. For the same compound, the “VAS DEFERENS Relative action” value [4] was 2250%, the “R IC 50 ileum / IC 50 V.D.” value [4] was 796 and the “Reaction time (s) 15' Licking” value ([7]; 35 mg/kg i.v.) was 29.4 ± 3.2 s. For the same compound, the “Reaction time (s) 30' Leap” value ([7]; 35 mg/kg i.v.) was 30.1 ± 5.7 s, the “Reaction time (s) 60' Adjusted jump” value ([7]; 35 mg/kg i.v.) was 28.6 ± 7.2 s and the “Reaction time (s) 90' Adjusted jump” value ([7]; 35 mg/kg i.v.) was 32.2 ± 9.2 s. The “Abstinence test (jumps)” value [5] was 10 ± 2 jumps, the “Increase” value ([6]; 5×10^-8 M) was 100% and the Locomotor activity [8] was 65 ± 10%.
